Measurements published in patent US20260022116A1, “IMIDAZOPYRIDINE COMPOUNDS, PREPARATION THEREOF AND THERAPEUTIC USES THEREOF” (SANOFI, priority 2022, published 2026).
Counter-ions that a name gives are not always drawn.

Each compound was assayed against T1, ERK5 (Homo sapiens, UniProt Q13164) (assay: biochemical).
Target sequence in this assay (Q13164 55-347 limits assumed): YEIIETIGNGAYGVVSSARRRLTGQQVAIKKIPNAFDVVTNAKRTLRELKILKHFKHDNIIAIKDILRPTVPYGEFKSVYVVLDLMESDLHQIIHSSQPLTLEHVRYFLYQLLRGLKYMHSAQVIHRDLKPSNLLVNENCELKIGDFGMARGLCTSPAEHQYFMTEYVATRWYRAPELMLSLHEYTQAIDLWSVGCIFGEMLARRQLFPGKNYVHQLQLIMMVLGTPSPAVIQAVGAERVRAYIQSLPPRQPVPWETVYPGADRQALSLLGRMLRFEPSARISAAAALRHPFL
Description: (§1) Two assays were performed to assess the ERK5 inhibitory activity of compounds of the Examples, a cell-based assay and a cell-free biochemical assay.
An assay was performed to measure the capacity of each compound to inhibit ERK5 enzymatic activity. Compound potency was evaluated by Time-Resolved Forster Resonance Energy Transfer (FRET system). […] A mixture of 1 mM ATP and 1 μM biotinylated synthetic peptide was added (Biosyntan GmbH). This synthetic peptide represents amino acids 30-52 of Eukaryotic translation initiation factor 4E-binding protein 1 (see, e.g., the sequence under accession No. NP_004086.1) biotinylated at the N-terminus.

Structure (SMILES) | IC50 [µM]
O=C(c1ccc(S(F)(F)(F)(F)F)cc1)N1CCC(c2c(F)cnc3[nH]c(C4CN(C(=O)O)C5COCC5O4)nc23)CC1 (racemic) [Example 455, (rac)-2-[6-fluoro-7-[1-[4-(pentafluoro-λ^6-sulfanyl)benzoyl]-4-piperidyl]-3H-imidazo[4,5-b]pyridin-2-yl]-2,3,4a,5,7,7a-hexahydrofuro[3,4-b][1,4]oxazine-4-carboxylic acid] | 6.46
O=C(c1ccc(S(F)(F)(F)(F)F)cc1)N1CCC(c2c(F)cnc3[nH]c([C@H]4CC[C@@](O)(C(F)(F)F)CC4)nc23)CC1 [Example 450, (trans)-[4-[6-fluoro-2-[4-hydroxy-4-(trifluoromethyl)cyclohexyl]-3H-imidazo[4,5-b]pyridin-7-yl]-1-piperidyl]-[4-(pentafluoro-λ^6-sulfanyl)phenyl]methanone] | 10.5
O=C(c1ccc(S(F)(F)(F)(F)F)cc1)N1CCC(c2c(F)cnc3[nH]c([C@H]4C[C@H](O)C4)nc23)CC1 [Example 448, (trans)-[4-[6-fluoro-2-(3-hydroxycyclobutyl)-3H-imidazo[4,5-b]pyridin-7-yl]-1-piperidyl]-[4-(pentafluoro-λ^6-sulfanyl)phenyl]methanone] | 0.175
O=C(c1ccc(S(F)(F)(F)(F)F)cc1)N1CCC(c2c(F)cnc3[nH]c(N4CCOCC4)nc23)CC1 [Example 449] | 0.28
O=C(c1ccc(S(F)(F)(F)(F)F)cc1)N1CCC(c2c(F)cnc3[nH]c(C4CCN(C5CC5)CC4)nc23)CC1 [Example 431, [4-[2-(1-cyclopropyl-4-piperidyl)-6-fluoro-3H-imidazo[4,5-b]pyridin-7-yl]-1-piperidyl]-[4-(pentafluoro-λ^6-sulfanyl)phenyl]methanone] | 0.535
Nc1cc(S(F)(F)(F)(F)F)ccc1C(=O)N1CCC(c2c(F)cnc3[nH]c(C4CCCO4)nc23)CC1 (racemic) [Example 383, (rac)-[2-amino-4-(pentafluoro-λ^6-sulfanyl)phenyl]-[4-(6-fluoro-2-tetrahydrofuran-2-yl-3H-imidazo[4,5-b]pyridin-7-yl)-1-piperidyl]methanone] | 0.385
O=C(c1ccc(S(F)(F)(F)(F)F)cc1)N1CCC(c2c(F)cnc3[nH]c([C@H]4C[C@@H](O)C4)nc23)CC1 [Example 446, (cis)-[4-[6-fluoro-2-(3-hydroxycyclobutyl)-3H-imidazo[4,5-b]pyridin-7-yl]-1-piperidyl]-[4-(pentafluoro-λ^6-sulfanyl)phenyl]methanone] | 0.487

These compounds were tested against T1, ERK5 (assay: cell-based).
Target sequence in this assay (Q13164 whole entry): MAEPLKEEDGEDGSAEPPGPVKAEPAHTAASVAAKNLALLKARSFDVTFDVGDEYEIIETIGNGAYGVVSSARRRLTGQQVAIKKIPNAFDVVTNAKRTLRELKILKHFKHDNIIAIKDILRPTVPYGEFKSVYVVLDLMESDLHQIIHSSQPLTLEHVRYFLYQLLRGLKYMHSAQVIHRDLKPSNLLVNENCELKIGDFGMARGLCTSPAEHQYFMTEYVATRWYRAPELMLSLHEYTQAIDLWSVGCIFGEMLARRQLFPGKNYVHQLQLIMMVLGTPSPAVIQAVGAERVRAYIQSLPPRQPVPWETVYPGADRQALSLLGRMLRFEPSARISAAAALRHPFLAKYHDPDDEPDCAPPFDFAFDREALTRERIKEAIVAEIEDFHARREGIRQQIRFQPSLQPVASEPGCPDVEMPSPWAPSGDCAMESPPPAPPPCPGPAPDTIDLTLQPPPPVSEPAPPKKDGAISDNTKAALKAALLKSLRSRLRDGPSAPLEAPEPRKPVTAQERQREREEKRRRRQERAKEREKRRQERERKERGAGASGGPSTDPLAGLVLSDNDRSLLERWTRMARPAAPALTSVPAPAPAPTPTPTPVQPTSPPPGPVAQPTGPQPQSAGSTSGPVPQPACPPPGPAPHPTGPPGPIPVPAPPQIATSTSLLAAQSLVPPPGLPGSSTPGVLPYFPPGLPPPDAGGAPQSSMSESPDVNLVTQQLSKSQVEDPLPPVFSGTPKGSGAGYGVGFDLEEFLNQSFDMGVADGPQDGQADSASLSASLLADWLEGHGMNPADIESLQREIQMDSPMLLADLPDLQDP
Description: as §1
The renal cancer cell line SN12C was transduced by a lentivirus pGreenFire1 MEF2 EF1 Neo (ref TR030VA-N) from SBI using standard infection protocol. pGreenFire1 MEF2 EF1 Neo allows the expression of luciferase gene under the control of minimal promoter with MEF2 transcriptional response elements. Cells harboring the reporter construct were selected by geneticin treatment. The selected cells were then transposed by a piggyback based plasmid pCM4007 allowing the expression of constitutively activated MEK5DD under control of TREG3 promoter, a doxycycline regulated promoter. Transposed cells were selected by puromycin treatment. Upon doxycycline treatment (1 μg/ml) MEK5DD was expressed. MEK5DD activates ERK5 that phosphorylates MEF2C protein. Activated MEF2C protein can bind to its transcriptional response elements. Then the luciferase is expressed. In a 96-well plate (96F nuncleon ref137101 thermofisher), 50,000 cells were inoculated in 142.5 μl of RPMI medium containing 10% fetal calf serum, 1% glutamine, and 1 μg/ml doxycycline. […] The luciferase activity was measured using the Kit Bright Glo Luminescent Cell Assay Cat E2610 (Promega) according to the manufacturer's protocol. Luminescence was determined using 0.2 second reading/well using a Tecan SPARK. IC50 values were calculated using XLFIT5 for Microsoft Excel using method 205.

Structure (SMILES) | IC50 [µM]
O=C(c1nn(-c2ccccc2C(F)(F)F)cc1O)N1CCC(c2ccnc3[nH]c(C4CCOCC4)nc23)CC1 [Example 89, [4-hydroxy-1-[2-(trifluoromethyl)phenyl]pyrazol-3-yl]-[4-(2-tetrahydropyran-4-yl-3H-imidazo[4,5-b]pyridin-7-yl)-1-piperidyl]methanone] | 3.16
O=S(=O)(c1ccc(OC(F)(F)F)cc1)N1CCC(c2ccnc3[nH]c(C4CCOCC4)nc23)CC1 [Example 165, 2-tetrahydropyran-4-yl-7-[1-[4-(trifluoromethoxy)phenyl]sulfonyl-4-piperidyl]-3H-imidazo[4,5-b]pyridine] | > 10
CCn1c(=O)c(=O)[nH]c2cc(-c3nc4c(C5CCN(C(=O)c6ccc(OC(F)(F)F)cc6)CC5)ccnc4[nH]3)ccc21 [Example 139, 1-ethyl-3-hydroxy-6-[7-[1-[4-(trifluoromethoxy)benzoyl]-4-piperidyl]-3H-imidazo[4,5-b]pyridin-2-yl]quinoxalin-2-one] | 3.27
Nc1c(C(=O)N2CCC(c3ccnc4[nH]c(C5CCOCC5)nc34)CC2)sc(C(F)(F)F)c1-c1ccccc1 [Example 92, [3-amino-4-phenyl-5-(trifluoromethyl)-2-thienyl]-[4-(2-tetrahydropyran-4-yl-3H-imidazo[4,5-b]pyridin-7-yl)-1-piperidyl]methanone] | 2.25
O=C(c1ccc(OC(F)(F)F)cc1)N1CCC(c2ccnc3[nH]c(-c4csc(-c5cc(Cl)ccc5O)n4)nc23)CC1 [Example 135, [4-[2-[2-(5-chloro-2-hydroxy-phenyl)thiazol-4-yl]-3H-imidazo[4,5-b]pyridin-7-yl]-1-piperidyl]-[4-(trifluoromethoxy)phenyl]methanone] | > 10
COC12CC(C(=O)N3CCC(c4ccnc5[nH]c(C6CCOCC6)nc45)CC3)(C1)C2 [Example 58, (3-Methoxy-1-bicyclo[1.1.1]pentanyl)-[4-(2-tetrahydropyran-4-yl-3H-imidazo[4,5-b]pyridin-7-yl)-1-piperidyl]methanone] | > 10
O=C1CC(C(=O)N2CCC(c3ccnc4[nH]c(C5CCOCC5)nc34)CC2)CN1Cc1ccccc1Cl (centres unmarked) [Example 110, 1-[(2-chlorophenyl)methyl]-4-[4-(2-tetrahydropyran-4-yl-3H-imidazo[4,5-b]pyridin-7-yl)piperidine-1-carbonyl]pyrrolidin-2-one] | > 10
CC(C)(C)OC(=O)Nc1cc(OC(F)(F)F)ccc1C(=O)N1CCC(c2ccnc3[nH]c(C4CCOCC4)nc23)CC1 [Example 190, tert-butyl N-[2-[4-(2-tetrahydropyran-4-yl-3H-imidazo[4,5-b]pyridin-7-yl)piperidine-1-carbonyl]-5-(trifluoromethoxy)phenyl]carbamate] | 0.979
CC(Oc1ccc(C(F)(F)F)cc1Cl)C(=O)N1CCC(c2ccnc3[nH]c(C4CCOCC4)nc23)CC1 (centres unmarked) [Example 87, 2-[2-chloro-4-(trifluoromethyl)phenoxy]-1-[4-(2-tetrahydropyran-4-yl-3H-imidazo[4,5-b]pyridin-7-yl)-1-piperidyl]propan-1-one] | > 10
O=C(c1n[nH]c2ccccc12)N1CCC(c2ccnc3[nH]c(C4CCOCC4)nc23)CC1 [Example 78, 1H-indazol-3-yl-[4-(2-tetrahydropyran-4-yl-3H-imidazo[4,5-b]pyridin-7-yl)-1-piperidyl]methanone] | 3.6
O=C(C1CC(=O)N(c2ccc(F)cc2)C1)N1CCC(c2ccnc3[nH]c(C4CCOCC4)nc23)CC1 (centres unmarked) [Example 111, 1-(4-fluorophenyl)-4-[4-(2-tetrahydropyran-4-yl-3H-imidazo[4,5-b]pyridin-7-yl)piperidine-1-carbonyl]pyrrolidin-2-one] | > 10
Nc1cc(OC(F)(F)F)ccc1C(=O)N1CCC(c2ccnc3[nH]c(C4CCOC4)nc23)CC1 (single isomer, unassigned) [Example 186, [2-amino-4-(trifluoromethoxy)phenyl]-[4-[2-[tetrahydrofuran-3-yl]-3H-imidazo[4,5-b]pyridin-7-yl]-1-piperidyl]methanone] | 0.027
O=C(C1CC12C(=O)Nc1ccccc12)N1CCC(c2ccnc3[nH]c(C4CCOCC4)nc23)CC1 (centres unmarked) [Example 117, 2-[4-(2-tetrahydropyran-4-yl-3H-imidazo[4,5-b]pyridin-7-yl)piperidine-1-carbonyl]spiro[cyclopropane-1,3′-indoline]-2′-one] | > 10
Cc1cc2ncc(C(=O)N3CCC(c4ccnc5[nH]c(C6CCOCC6)nc45)CC3)c(N)n2n1 [Example 109, (7-amino-2-methyl-pyrazolo[1,5-a]pyrimidin-6-yl)-[4-(2-tetrahydropyran-4-yl-3H-imidazo[4,5-b]pyridin-7-yl)-1-piperidyl]methanone] | 7.94
Nc1cc(OC(F)(F)F)ccc1C(=O)N1CCC(c2ccnc3[nH]c(C4CNCC(F)(F)C4)nc23)CC1 (single isomer, unassigned) [Example 162, [2-amino-4-(trifluoromethoxy)phenyl]-[4-[2-[5,5-difluoro-3-piperidyl]-3H-imidazo[4,5-b]pyridin-7-yl]-1-piperidyl]methanone] | 0.261
CO[C@H]1CC[C@H](c2nc3c(C4CCN(C(=O)c5ccc(OC(F)(F)F)cc5)CC4)ccnc3[nH]2)CC1 [Example 153, (trans)-[4-(trifluoromethoxy)phenyl]-[4-[2-(4-methoxycyclohexyl)-3H-imidazo[4,5-b]pyridin-7-yl]-1-piperidyl]methanone;hydrochloride] | 0.195
Nc1cc(OC(F)(F)F)ccc1C(=O)N1CCC(c2ccnc3[nH]c(C4CCOC4)nc23)CC1 (single isomer, unassigned) [Example 187, [2-amino-4-(trifluoromethoxy)phenyl]-[4-[2-[tetrahydrofuran-3-yl]-3H-imidazo[4,5-b]pyridin-7-yl]-1-piperidyl]methanone] | 0.041
O=C(c1ccc(OC(F)(F)F)cc1)N1CCC(c2ccnc3[nH]c(-c4cnc5ccc(C(F)(F)F)cc5c4O)nc23)CC1 [Example 230, [4-[2-[4-hydroxy-6-(trifluoromethyl)-3-quinolyl]-3H-imidazo[4,5-b]pyridin-7-yl]-1-piperidyl]-[4-(trifluoromethoxy)phenyl]methanone] | 6.48
CCn1cc(N)c(C(=O)N2CCC(c3ccnc4[nH]c(C5CCOCC5)nc34)CC2)n1 [Example 115, (4-amino-1-ethyl-pyrazol-3-yl)-[4-(2-tetrahydropyran-4-yl-3H-imidazo[4,5-b]pyridin-7-yl)-1-piperidyl]methanone] | > 10
O=C(c1cccc(N2CCCS2(=O)=O)c1)N1CCC(c2ccnc3[nH]c(C4CCOCC4)nc23)CC1 [Example 85, [3-(1,1-dioxo-1,2-thiazolidin-2-yl)phenyl]-[4-(2-tetrahydropyran-4-yl-3H-imidazo[4,5-b]pyridin-7-yl)-1-piperidyl]methanone] | > 10
O=C(c1cnn2c1NCCC2C(F)(F)F)N1CCC(c2ccnc3[nH]c(C4CCOCC4)nc23)CC1 (centres unmarked) [Example 79, [4-(2-tetrahydropyran-4-yl-3H-imidazo[4,5-b]pyridin-7-yl)-1-piperidyl]-[7-(trifluoromethyl)-4,5,6,7-tetrahydropyrazolo[1,5-a]pyrimidin-3-yl]methanone] | 7.89
O=C(C1CC(=O)N(c2ccc(F)c(F)c2)C1)N1CCC(c2ccnc3[nH]c(C4CCOCC4)nc23)CC1 (centres unmarked) [Example 107, 1-(3,4-difluorophenyl)-4-[4-(2-tetrahydropyran-4-yl-3H-imidazo[4,5-b]pyridin-7-yl)piperidine-1-carbonyl]pyrrolidin-2-one] | > 10
